Converted amounts (≈) assume the structure as drawn. “And” between values parts separate entries of the source, which are not always exact repeats. Equal entries are not always repeated. Where two headings read alike, the source gives them in different places.
Assays:
RSV-Long [1] = experiment: Plaque reduction assay (PRA); format: cell-based; settings: human respiratory syncytial virus, HEp-2; Table 3, plaque reduction assay
Experimental: The materials and methods used for PRA are as follows. […] The overlay was prepared by mixing 1 part of 1.2% SeaPlaque and 1 part 2×MEM containing 4% FBS, plus appropriate concentrations of each EB fraction or ribavirin. Each concentration of the EB fraction or ribavirin was tested in duplicate wells. After 7 days, the agarose was carefully removed and cells were rinsed twice with 2 ml of PBS. The cell monolayer was fixed using 0.2% crystal violet in 20% methanol at room temperature. After 30 minutes, the fixer was removed by washing with deionized water, and the plates were air-dried prior to counting plaques. The number of plaques obtained for each fraction or ribavirin was expressed as a percentage of the control. The percentage values obtained were used to calculate IC50 values.

RSV-Long [2] = experiment: Viral RNA analysis (RiboGreen); format: cell-based, respiratory syncytial virus; settings: for RNA Concentration: three days
Experimental: The method for analysis of viral RNA is as follows. Six well plates were infected with 1 ml stock of RSV-Long (10×TCID50) diluted 1:20 in infection medium (DMEM+2% FBS). The plates were incubated in 37° C. incubators for 60 min, after which the inoculum was removed and the plates were rinsed. […] Each concentration was added in duplicate. […] After three days, the culture supernatants were transferred into clean conical tubes and subjected to centrifugation at low speed to remove cell debris. […] RNA was extracted using a commercial RNA extraction kit purchased from Epicentre Technologies (Madison, WI). The procedure was performed according to the manufacturer's instructions, and samples were stored at −20° C. The level of viral RNA in each sample was determined using the RiboGreen® RNA quantitative kit (Molecular Probes, Eugene, Oreg.) according the manufacturer's instructions.

RSV A2 = experiment: Cotton rat RSV infection model, pulmonary titer
Experimental: All groups consisted of four randomly selected cotton rats. All test materials were administered intraperitoneally with once daily dosing. The placebo group was administered distilled water at volumes and schedules identical to the other groups receiving investigational test articles. In general, timing of administration of ribavarin to the ribavarin-treated group paralleled that of the other treatment groups except that initiation of dosing was on Day 1 for Experiments 1 and 2 and Day 0 for Experiment 3. The dose of ribavarin was 90 mg/kg/day in Experiments 1 and 3 and 180 mg/kg/day in Experiment 2. All animals were inoculated intranasally with approximately 100 median cotton rat infectious doses (CRID50) of RSV A2 on Day 0. Experiments were terminated on either Day 3 or 4 post-infection. […] On the day that the experiment was terminated, all CRs were sacrificed using CO2 to asphyxiate the animals. The lungs from the animals were subsequently removed. The lungs of sacrificed animals were removed, rinsed in sterile phosphate-buffered saline (PBS; pH 7.2) and weighed. Each set of lungs was then transpleurally lavaged using 3 ml of 2% FCS-MEM media. The resulting lung fractions were kept on ice until they were assayed for RSV. The lung fractions of animals from each group were tested for the levels of RSV present.

in vitro [3] = settings: African green monkey
in vitro [4] = settings: human
RSV B = experiment: CPE assay, RSV-B in Hep-2 cells; format: cell-based, respiratory syncytial virus
RSV-Long [5] = experiment: Time of addition, CPE assay; format: cell-based, respiratory syncytial virus; settings: human respiratory syncytial virus
Experimental: Determine the Time of Addition for EB Fractions. […] This activity is related to the life cycle of the virus and the step in the cycle where the compounds act. In this example, experiments were performed to investigate the effect of the time of addition of EB fractionated products on anti-RSV activity.
Mechanism of action studies were performed as follows. Mechanism of action studies were performed using CJ4-16-4 in a CPE assay with Hep-2 cells.

RSV [6] = experiment: Viral yield assay (VYA); format: cell-based, respiratory syncytial virus
Experimental: The materials and methods used for VYA are as follows. […] Each concentration of the test articles or control drug was tested in triplicate wells. […] The aliquots from each of the eight wells of a given column were transferred to the first column of a fresh 96-well monolayer culture of Hep-2 cells. The contents were mixed and serially diluted across the remaining columns of the secondary plate. Each column of the original primary plate was diluted across a separate plate in this manner. The cultures were incubated for 7 additional days, and the end point was monitored by CPE assay as described above.

RSV [7] = experiment: Limited pretreatment of host cells, CPE assay; format: cell-based, respiratory syncytial virus; settings: removed before infection
Experimental: A limited pretreatment of host cells with EB fractions was investigated as follows. […] The cells were incubated in fresh medium without the test article. After 7 days, the viral inhibition was evaluated using CPE assay protocol.

RSV (Long strain) = experiment: CPE assay, RSV-Long in Hep-2 cells; format: cell-based, respiratory syncytial virus
RSV-A2 = experiment: CPE assay, RSV-A2 in Hep-2 cells; settings: Hep-2 cells, CPE assay
Experimental: The cell line was propagated in MEM supplemented with 10% heat-inactivated fetal bovine serum (FBS) containing 100 μg/ml of antibiotics (streptomycin/penicillin). […] The overnight medium (MEM containing 10% FBS) was removed, and wells were rinsed twice with 1× phosphate buffer saline (PBS, 200 μl) before adding 10×TCID50 of RSV suspension in fresh medium (MEM plus 2% FBS) to each well, except for cell only wells. […] CellTiter 96 Aqueous Non-Radioactive Cell Proliferation Assay (Promega) was used to monitor the antiviral activity following the manufacturer's instruction. After incubation, the cells were rinsed twice with 200 μl of 1×PBS prior to the addition of 100 μl of fresh medium (MEM plus 10% FBS). […] The extent of cell viability was measured at 490 nm using an ELISA reader, and the absorbance was used to calculate percent inhibition. Antiviral activity of each EB fraction or ribavirin is expressed as IC50, which represents the concentration of the test substance required to reduce the virus infection (as measured by the destruction of the host cells) by 50%.
Hep-2 cells were used in the CPE assay to determine anti-RSV properties.

[8] = test system: Herpes simplex virus type 2 (MS-strain); experiment: CPE assay, HSV-2 specificity; format: cell-based; settings: CPE assay with MDCK or Vero cells
Experimental: (§1) To determine whether the fractions are specific RSV inhibitors rather than general antiviral agents, the inventors tested them against influenza type A/Shangdong/09/93 (H3N2), herpes simplex type 1 (MacItyre), and herpes simplex type 2 (MS) using the CPE assay system.
(§2) CJ4-16-4 was tested using influenza type A, herpes simplex virus type 1, and herpes simplex virus type 2 using the CPE assay with MDCK or Vero cells.

Vero cells = experiment: Cytotoxicity (MTS) in uninfected Vero cells; settings: isolated compounds
MDCK cells = experiment: Cytotoxicity in MDCK cells; settings: isolated compounds
Hep-2 cells = experiment: Cytotoxicity (MTS) in uninfected Hep-2 cells; settings: isolated compounds
[9] = test system: Influenza A-Shangdong/09/93 (H3N2); experiment: CPE assay, influenza A specificity; format: cell-based, influenza type A; settings: CPE assay with MDCK or Vero cells
Experimental: as §1, §2

[10] = test system: Herpes simplex virus type 1 (MacIntyre strain); experiment: CPE assay, HSV-1 specificity; format: cell-based; settings: CPE assay with MDCK or Vero cells
Experimental: as §1, §2

[11] = test system: RSV-Long (Cotton Rat adapted strain); experiment: CPE assay, RSV-Long cotton rat adapted strain; format: cell-based, respiratory syncytial virus; settings: Hep-2 cells, CPE assay
[12] = 90 mg/kg/day B.I.D i.p. D0-D3, water, harvest day 4
[13] = human respiratory syncytial virus, HEp-2, Table 2, extracted fractions, average of two or three experiments

## NC(=O)c1ncn([C@@H]2O[C@H](CO)[C@@H](O)[C@H]2O)n1 [Ribavirin]
RSV-Long [1]
  IC50: 3.84 µg/mL (≈ 15.7 µM)
RSV-Long [2]; drug concentration 1 μg/ml
  RNA Concentration: 450 ng/mL
RSV-Long [2]; drug concentration 20 μg/ml
  RNA Concentration: 225 ng/mL
RSV-Long [2]; drug concentration increased from 1 to 20 μg/ml
  reduction of viral RNA: 2 fold
RSV A2; 90 mg/kg/day B.I.D i.p. D0-D3, vs placebo
  Reduction: 2.9 Log 10
RSV A2; [12]
  RSV Pulmonary Titer Mean ± SD: 1.5 ± 1.8 log10/g lung
  RSV Pulmonary Titer in individual CR (A-D): 2.8 log10/g lung and 3.3 log10/g lung and 0 log10/g lung (2×)
RSV A2; Experiment 1
  reduction of mean viral titer: 2.5 logs
RSV A2; Experiment 1: 100 mg/kg/day i.p. (ribavirin 90 mg/kg/day), harvest Day 4
  RSV pulmonary Mean Titers ± SD: 3.1 ± 0.29 log 10
RSV A2; Experiment 2
  reduction of mean viral titer: 2.5 logs
RSV A2; Experiment 2: 100 mg/kg/day i.p. from Day -1 (ribavirin 180 mg/kg/day), harvest Day 3
  RSV pulmonary Mean Titers ± SD: 2.3 ± 0.4 log 10
RSV A2; Experiment 3
  reduction of mean viral titer: 2.5 logs
RSV A2; Experiment 3: 250 mg/kg/day i.p. from Day -1 (ribavirin 90 mg/kg/day), harvest Day 3
  RSV pulmonary Mean Titers ± SD: 2.2 ± 1.5 log 10
RSV A2; three experiments
  Overall Mean Titer: 2.53 ± 0.73 log 10
  reduction of overall mean viral titer: 2.5 logs
RSV A2; three experiments combined
  animals with no detectable virus: 1 out of 12
In vitro [3]
  CC50 at 7 days: > 100 µg/mL
In vitro [4]
  CC50 at 7 days: 76.4 ± 4.4 µg/mL (≈ 313 µM)
RSV B; [13]
  IC50: 3.2 ± 0.5 µg/mL (≈ 13.1 µM)
RSV-Long [5]; addition 0 h, 10×TCID50 RSV-Long, Hep-2
  IC50: 3.6 ± 0.36 µg/mL (≈ 14.7 µM)
RSV-Long [5]; addition +7 h post-infection
  IC50: 3.9 ± 0.64 µg/mL (≈ 16 µM)
RSV-Long [5]; addition +26 h post-infection
  IC50: 4.43 ± 0.88 µg/mL (≈ 18.1 µM)
RSV [6]; 3.1 μg/ml
  Mean Titer: 3 log 10
  Reduction of viral titer: 1 log10
RSV [6]; 25.0 μg/ml
  Mean Titer: 2 log 10
  Reduction of viral titer: 2 log10
RSV [7]; human respiratory syncytial virus, pre-treatment time 4 hrs, read-out: IC50
  IC50: > 50 µg/mL
RSV [7]; pre-treatment time 0 hrs
  IC50: >50 µg/mL
RSV [7]; pre-treatment time 8 hrs
  IC50: >50 µg/mL
RSV [7]; pre-treatment time 24 hrs
  IC50: >50 µg/mL
RSV (Long strain); [13]
  IC50: 3.8 ± 0.2 µg/mL (≈ 15.6 µM)

## O=C(/C=C/c1ccc(O)c(O)c1)O[C@H]1[C@H](O)C[C@](O)(C(=O)O)C[C@H]1OC(=O)/C=C/c1ccc(O)c(O)c1 [CJ2-27-4, 4,5-dicaffeoylquinic acid]
RSV-A2
  EC50, RSV-A2: 0.521 µg/mL (≈ 1.01 µM)
[8]
  EC50, Herpes simplex virus type 2 (MS-strain): >50 µg/mL
Vero cells
  CC50, Vero: >200 µg/mL
RSV B; Hep-2 cells, CPE assay
  EC50, RSV-B (Washington): 0.218 µg/mL (≈ 0.422 µM)
MDCK cells
  CC50, MDCK: >200 µg/mL
Hep-2 cells
  CC50, Hep 2: >200 µg/mL
[9]
  EC50, Influenza A-Shangdong/09/93 (H3N2): >50 µg/mL
[10]
  EC50, Herpes simplex virus type 1 (MacIntyre strain): >50 µg/mL
[11]
  EC50, RSV-Long (Cotton Rat adapted strain): 5.519 µg/mL (≈ 10.7 µM)
RSV (Long strain); Hep-2 cells, CPE assay
  EC50, RSV-Long: 0.052 µg/mL (≈ 0.101 µM)

— patent US20060020029A1, “Pharmaceutical compositions from ethnobotanicals” (priority 2004, published 2006)
